Class data for 36 compounds are collected here from US20050197350A1, “Novel quinoline, tetrahydroquinazoline, and pyrimidine derivatives and methods of treatment related to the use thereof” (TAISHO PHARMACEUTICAL CO., LTD., priority 2003, published 2005).

One experiment relates to MCH receptors. Description: MCH receptor activity class (method not given). As to conditions: MCH receptor activity class 1-3 (percent of control at 10^-7 M or IC50).
With `CN(C)c1nc(N[C@H]2CC[C@@H](CNC(=O)Nc3ccccc3I)CC2)nc2c1CCCC2` [compound 2470], the class is given as 3 (Class 3 The value of percent of control at 10^−7 M was more than 60% or the value of IC50 was more than 200 nM.). On the same count and under the same terms, under `Cc1cc(C)c(NC(=S)N[C@H]2CC[C@@H](Nc3cc(N(C)C)c4ccccc4n3)CC2)cc1C` [compound 2289] stands 3 (Class 3 The value of percent of control at 10^−7 M was more than 60% or the value of IC50 was more than 200 nM.).

Still in this experiment, the particulars now being: MCH receptor; class by percent of control at 10^-7 M or IC50.
Regarding `CN(C)c1cc(N[C@H]2CC[C@@H](NC(=O)c3ccc(Cl)c([N+](=O)[O-])c3)CC2)nc2ccccc12` [compound 27, 4-chloro-N-(cis-4-{[4-(dimethylamino)quinolin-2-yl]amino}cyclohexyl)-3-nitrobenzamide], the class is reported as 1 (Class 1: The value of percent of control at 10^−7 M was less than 40% or the value of IC50 was less than 50 nM.). Still for that read-out and setting: under `CN(C)c1cc(N[C@H]2CC[C@@H](NC(=O)CCCOc3ccccc3)CC2)nc2ccccc12` [compound 120] stands 3 (Class 3 The value of percent of control at 10^−7 M was more than 60% or the value of IC50 was more than 200 nM.); under `CN(C)c1nc(N[C@H]2CC[C@@H](NC(=S)NC(C)(C)CC(C)(C)C)CC2)nc2c1CCCC2` [compound 1954], 3 (Class 3 The value of percent of control at 10^−7 M was more than 60% or the value of IC50 was more than 200 nM.); under `CN(C)c1nc(N[C@H]2CC[C@@H](NC(=S)Nc3ccccc3OC(F)F)CC2)nc2c1CCCC2` [compound 1976], 3 (Class 3 The value of percent of control at 10^−7 M was more than 60% or the value of IC50 was more than 200 nM.). In the case of `CN(C)c1nc(N[C@H]2CC[C@@H](NC(=O)Nc3cc(F)cc4c3OCOC4)CC2)nc2c1CCCC2` [compound 1920], the class is 3 (Class 3 The value of percent of control at 10^−7 M was more than 60% or the value of IC50 was more than 200 nM.).

Still in this experiment, the particulars now being: activity class 1-3: percent of control at 10^-7 M or IC50.
On to `CN(C)c1ccnc(N[C@H]2CC[C@@H](NC(=O)OCC(C)(C)C)CC2)n1` [compound 1620], for which the class was 3 (Class 3 The value of percent of control at 10^−7 M was more than 60% or the value of IC50 was more than 200 nM.).

The experiment is the same for the next values; noted with them: activity class per percent of control at 10^-7 M or IC50.
In the case of `CN(C)c1cccc(C(=O)N[C@H]2CC[C@@H](Nc3nc4c(c(N(C)C)n3)CCCC4)CC2)c1` [compound 981, 3-(dimethylamino)-N-(cis-4-{[4-(dimethylamino)-5,6,7,8-tetrahydroquinazolin-2-yl]amino}cyclohexyl)benzamide], the class was 2 (Class 2: The value of percent of control at 10^−7 M was from 40% to 60% or the value of IC′50 was from 50 nM to 200 nM.). As for `COc1cc(CNC[C@H]2CC[C@@H](Nc3cc(N(C)C)c4ccccc4n3)CC2)cc(I)c1O` [compound 1139], the class was 3 (Class 3 The value of percent of control at 10^−7 M was more than 60% or the value of IC50 was more than 200 nM.). Same read-out and setting: the figure for `CN(C)c1nc(N[C@H]2CC[C@@H](NC(=O)COc3c(Cl)cc(Cl)cc3Cl)CC2)nc2c1CCCC2` [compound 1023] is 3 (Class 3 The value of percent of control at 10^−7 M was more than 60% or the value of IC50 was more than 200 nM.). The same measure, in the same setting: under `CN(C)c1nc(N[C@H]2CC[C@@H](NC(=O)[C@H](CCCCNC(=O)c3ccccc3)NC(=O)c3ccccc3)CC2)nc2c1CCCC2` (relative stereo) [compound 980] stands 2 (Class 2: The value of percent of control at 10^−7 M was from 40% to 60% or the value of IC′50 was from 50 nM to 200 nM.).

The same experiment, now with this note: class 1-3 by percent of control at 10^-7 M or IC50.
Regarding `CN(C)c1ccnc(N[C@H]2CC[C@@H](CNC(=O)Cc3cccc4ccccc34)CC2)n1` [compound 434], the class is 1 (Class 1: The value of percent of control at 10^−7 M was less than 40% or the value of IC50 was less than 50 nM.). Still for that read-out and setting: under `CN(C)c1nc(N[C@H]2CC[C@@H](NC(=O)c3cccc4ccccc34)CC2)nc2c1CCCC2` [compound 545] stands 3 (Class 3 The value of percent of control at 10^−7 M was more than 60% or the value of IC50 was more than 200 nM.); under `COc1cc(OC)cc(C(=O)NC[C@H]2CC[C@@H](Nc3nccc(N(C)C)n3)CC2)c1` [compound 421], 3 (Class 3 The value of percent of control at 10^−7 M was more than 60% or the value of IC50 was more than 200 nM.).

Staying with this experiment, now noted: class by percent of control at 10^-7 M or IC50.
As for `COc1ccc(CC(=O)N[C@H]2CC[C@@H](Nc3nccc(N(C)C)n3)CC2)cc1OC` [compound 341], the class is reported as 3 (Class 3 The value of percent of control at 10^−7 M was more than 60% or the value of IC50 was more than 200 nM.). On the same count and under the same terms, the figure for `CN(C)c1ccnc(N[C@H]2CC[C@@H](NC(=O)C3C[C@H]3c3ccccc3)CC2)n1` (stereo partly drawn) [compound 264] is 3 (Class 3 The value of percent of control at 10^−7 M was more than 60% or the value of IC50 was more than 200 nM.). Take `CN(C)c1ccnc(N[C@H]2CC[C@@H](NC(=O)[C@H](Cc3cn(Cc4ccccc4)cn3)NC(=O)OC(C)(C)C)CC2)n1` [compound 848]: the class is recorded as 3 (Class 3 The value of percent of control at 10^−7 M was more than 60% or the value of IC50 was more than 200 nM.).

For the compound `CN(C)c1cc(N[C@H]2CC[C@@H](NC(=O)[C@H](Cc3cn(Cc4ccccc4)cn3)NC(=O)OC(C)(C)C)CC2)nc2ccccc12` [compound 709], the class is 3 (Class 3 The value of percent of control at 10^−7 M was more than 60% or the value of IC50 was more than 200 nM.). Turning to `CN(C)c1nc(N[C@H]2CC[C@@H](NC(=O)Nc3ccc(Cl)cc3[N+](=O)[O-])CC2)nc2c1CCCC2` [compound 1886], the class was 3 (Class 3 The value of percent of control at 10^−7 M was more than 60% or the value of IC50 was more than 200 nM.).

With `Cc1cc(C)c2occ(CN[C@H]3CC[C@@H](Nc4nccc(N(C)C)n4)CC3)c(=O)c2c1` [compound 1229], the class is reported as 3 (Class 3 The value of percent of control at 10^−7 M was more than 60% or the value of IC50 was more than 200 nM.).

For `CN(C)c1cc(N[C@H]2CC[C@@H](NC(=O)[C@H](CCCCNC(=O)c3ccccc3)NC(=O)c3ccccc3)CC2)nc2ccccc12` (relative stereo) [compound 704], the class was 3 (Class 3 The value of percent of control at 10^−7 M was more than 60% or the value of IC50 was more than 200 nM.).

In the case of `COc1ccc(CNC[C@H]2CC[C@@H](Nc3nc4c(c(N(C)C)n3)CCCC4)CC2)c(OC)c1` [compound 1373], the class is reported as 3 (Class 3 The value of percent of control at 10^−7 M was more than 60% or the value of IC50 was more than 200 nM.). Regarding `CN(C)c1cc(N[C@H]2CC[C@@H](CNCc3ccc(CO)o3)CC2)nc2ccccc12` [compound 1155], the class is on record as 3 (Class 3 The value of percent of control at 10^−7 M was more than 60% or the value of IC50 was more than 200 nM.). Take `Cc1cc(C)c(NC(=O)Nc2ccc(OC(F)(F)F)cc2)c(C(=O)N[C@H]2CC[C@@H](Nc3cc(N(C)C)c4ccccc4n3)CC2)c1` [compound 718]: the class is listed as 3 (Class 3 The value of percent of control at 10^−7 M was more than 60% or the value of IC50 was more than 200 nM.). The same measure, in the same setting: under `CN(C)c1cc(N[C@H]2CC[C@@H](NC(=O)Nc3ccccc3Br)CC2)nc2ccccc12` [compound 2123] stands 3 (Class 3 The value of percent of control at 10^−7 M was more than 60% or the value of IC50 was more than 200 nM.); under `COc1ccc(C)cc1NC(=O)NC[C@H]1CC[C@@H](Nc2nc3c(c(N(C)C)n2)CCCC3)CC1` [compound 2492], 3 (Class 3 The value of percent of control at 10^−7 M was more than 60% or the value of IC50 was more than 200 nM.). The same measure, in the same setting: the figure for `CCc1ccccc1NC(=S)N[C@H]1CC[C@@H](Nc2nccc(N(C)C)n2)CC1` [compound 2268] is 3 (Class 3 The value of percent of control at 10^−7 M was more than 60% or the value of IC50 was more than 200 nM.). The same measure, in the same setting: under `CCc1cccc(NC(=O)N[C@H]2CC[C@@H](Nc3nc4c(c(N(C)C)n3)CCCC4)CC2)c1` [compound 1871] stands 3 (Class 3 The value of percent of control at 10^−7 M was more than 60% or the value of IC50 was more than 200 nM.); under `CN(C)c1nc(N[C@H]2CC[C@@H](CNCc3ccc(CO)o3)CC2)nc2c1CCCC2` [compound 1397], 3 (Class 3 The value of percent of control at 10^−7 M was more than 60% or the value of IC50 was more than 200 nM.); under `CN(C)c1ccnc(N[C@H]2CC[C@@H](NC(=O)NCc3ccc(Cl)cc3Cl)CC2)n1` [compound 2230], 3 (Class 3 The value of percent of control at 10^−7 M was more than 60% or the value of IC50 was more than 200 nM.).

For `CN(C)c1nc(N[C@H]2CC[C@@H](CNCc3cn(C)c4ccccc34)CC2)nc2c1CCCC2` [compound 1421], the class is on record as 3 (Class 3 The value of percent of control at 10^−7 M was more than 60% or the value of IC50 was more than 200 nM.).

Still in this experiment, the particulars now being: class by percent of control at 10^−7 M or IC50.
Turning to `Cc1cc(C(=O)N[C@H]2CC[C@@H](Nc3nc(C)c(C)c(N(C)C)n3)CC2)ccc1F` [compound 2854, N-(cis-4-{[4-(dimethylamino)-5,6-dimethylpyrimidin-2-yl]amino}cyclohexyl)-4-fluoro-3-methylbenzamide], the class is on record as 1 (Class 1: The value of percent of control at 10^−7 M was less than 40% or the value of IC50 was less than 50 nM.). Same read-out and setting: under `Cc1ccc(C(=O)N[C@H]2CC[C@@H](CNc3ncc(C)c(N(C)C)n3)CC2)cc1F` [compound 2717] stands 3 (Class 3 The value of percent of control at 10^−7 M was more than 60% or the value of IC50 was more than 200 nM.); under `Cc1cc(N(C)C)nc(N[C@H]2CC[C@@H](NC(=O)c3ccc(Cl)o3)CC2)n1` [compound 2980, 5-chloro-N-(cis-4-{[4-(dimethylamino)-6-methylpyrimidin-2-yl]amino}cyclohexyl)-2-furamide], 1 (Class 1: The value of percent of control at 10^−7 M was less than 40% or the value of IC50 was less than 50 nM.). Regarding `CCOc1cc(OCC)cc(C(=O)N[C@H]2CC[C@@H](Nc3nc(C)c(C)c(N(C)C)n3)CC2)c1` [compound 2860], the class is 1 (Class 1: The value of percent of control at 10^−7 M was less than 40% or the value of IC50 was less than 50 nM.).
